Measured values published in US20170320870A1 (Medical Research Council Technology, priority 2009, published 2017).

molecular target: T1, LRRK2 wild type (recombinant human, catalytic domain amino acids 970-2527, GST-tagged) (Homo sapiens, UniProt Q5S007); experiment: LRRK2 wild type protein kinase assay ([γ-33P] ATP, peptide substrate […]), IC50; assay type: biochemical; conditions: LRRK2 (variant not given); read-out: Potency score, LRRK2 IC50
T1 construct: The wild type used was recombinant human, catalytic domain (amino acids 970-2527) GST-tagged, expressed in insect cells; GST; purchased Invitrogen Corporation PV4873; host or cells: insect cells
T1 sequence (Q5S007 970-2527): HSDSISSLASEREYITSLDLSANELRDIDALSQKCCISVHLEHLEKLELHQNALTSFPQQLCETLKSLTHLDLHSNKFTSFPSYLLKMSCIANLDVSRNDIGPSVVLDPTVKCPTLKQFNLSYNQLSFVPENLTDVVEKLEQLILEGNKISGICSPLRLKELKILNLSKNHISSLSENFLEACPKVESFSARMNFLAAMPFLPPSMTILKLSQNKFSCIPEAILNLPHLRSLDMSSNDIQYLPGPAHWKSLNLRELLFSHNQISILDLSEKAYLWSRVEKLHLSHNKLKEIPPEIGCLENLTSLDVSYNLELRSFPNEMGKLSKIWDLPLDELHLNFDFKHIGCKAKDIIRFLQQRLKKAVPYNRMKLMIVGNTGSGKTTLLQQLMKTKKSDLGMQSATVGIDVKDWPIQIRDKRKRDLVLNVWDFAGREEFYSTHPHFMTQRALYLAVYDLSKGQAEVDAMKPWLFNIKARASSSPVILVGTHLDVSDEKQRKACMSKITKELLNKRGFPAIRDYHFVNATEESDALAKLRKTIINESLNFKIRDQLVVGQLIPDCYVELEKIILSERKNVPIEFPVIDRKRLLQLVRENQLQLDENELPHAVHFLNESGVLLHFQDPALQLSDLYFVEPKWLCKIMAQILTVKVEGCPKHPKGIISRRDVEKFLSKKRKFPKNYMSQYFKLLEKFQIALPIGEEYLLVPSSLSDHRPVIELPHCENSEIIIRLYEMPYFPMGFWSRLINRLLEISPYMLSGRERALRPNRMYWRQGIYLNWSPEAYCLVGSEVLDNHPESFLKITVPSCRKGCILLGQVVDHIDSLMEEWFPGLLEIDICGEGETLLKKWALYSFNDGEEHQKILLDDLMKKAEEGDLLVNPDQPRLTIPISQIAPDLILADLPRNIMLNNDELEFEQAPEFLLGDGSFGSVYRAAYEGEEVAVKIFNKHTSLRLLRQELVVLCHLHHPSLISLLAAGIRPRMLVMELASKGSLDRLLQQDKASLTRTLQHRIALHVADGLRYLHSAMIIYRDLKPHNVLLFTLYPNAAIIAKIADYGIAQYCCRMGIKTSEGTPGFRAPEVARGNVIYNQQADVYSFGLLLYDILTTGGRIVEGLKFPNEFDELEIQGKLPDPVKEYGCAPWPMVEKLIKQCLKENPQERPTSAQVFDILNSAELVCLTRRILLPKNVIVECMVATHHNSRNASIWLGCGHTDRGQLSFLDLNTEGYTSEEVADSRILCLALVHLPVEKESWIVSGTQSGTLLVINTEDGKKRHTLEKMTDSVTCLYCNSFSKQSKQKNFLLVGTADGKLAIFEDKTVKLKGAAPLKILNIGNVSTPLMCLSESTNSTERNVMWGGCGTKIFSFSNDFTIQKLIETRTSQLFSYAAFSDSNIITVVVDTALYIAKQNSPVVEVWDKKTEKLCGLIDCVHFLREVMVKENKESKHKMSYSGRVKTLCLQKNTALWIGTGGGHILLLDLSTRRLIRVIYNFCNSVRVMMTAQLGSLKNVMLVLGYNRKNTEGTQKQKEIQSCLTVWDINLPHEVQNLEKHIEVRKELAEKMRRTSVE
Outline: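 IC50 derived from duplicate 10-point titrations, with 33P incorporation into a 100 μM peptide counted after P81 filter capture. Roughly 5 nM unactivated kinase reacted with Mg/[γ-33P]ATP for 180 min at room temperature (~21 °C), pH 7.5 Tris buffer containing 10 mM MgCl2, EGTA and DTT; acid-quenched.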

| IC50 | SMILES |
| --- | --- |
| 1000 to 10000 nM | Cc1cc(C)c(Nc2nccc3[nH]nc(C)c23)cn1 [Example 350, (4,6-Dimethyl-pyridin-3-yl)-(3-methyl-1H-pyrazolo[4,3-c]pyridin-4-yl)-amine] |
| < 100 nM | O=C(Nc1cccc(CCc2n[nH]c3ccnc(NC4CCCCC4)c23)c1)c1cocn1 [Example 228, Oxazole-4-carboxylic acid {3-[2-(4-cyclohexylamino-1H-pyrazolo[4,3-c]pyridin-3-yl)-ethyl]-phenyl}-amide] |
| 1000 to 10000 nM | COc1ccc(C(=O)N2CCC(Nc3nccc4[nH]nc(C)c34)CC2)cc1 [Example 105, (4-Methoxy-phenyl)-[4-(3-methyl-1H-pyrazolo[4,3-c]pyridin-4-ylamino)-piperidin-1-yl]-methanone] |
| < 100 nM | O=C(CCc1n[nH]c2ccnc(NC3CCCCC3)c12)N1CCC(c2ccccc2)CC1 [Example 204, 3-(4-Cyclohexylamino-1H-pyrazolo[4,3-c]pyridin-3-yl)-1-(4-phenyl-piperidin-1-yl)-propan-1-one] |
| 1000 to 10000 nM | OCCCc1n[nH]c2ccnc(NC3CCCCC3)c12 [Example 231, 3-(4-Cyclohexylamino-1H-pyrazolo[4,3-c]pyridin-3-yl)-propan-1-ol] |
| < 100 nM | O=C(/C=C/c1n[nH]c2ccnc(OC3CCCCC3)c12)N1CCC[C@H](c2ccccc2)C1 [Example 261, (E)-3-(4-Cyclohexyloxy-1H-pyrazolo[4,3-c]pyridin-3-yl)-1-((R)-3-phenyl-piperidin-1-yl)-propenone] |
| 100 to 1000 nM | COc1ccccc1Nc1nccc2[nH]nc(C)c12 [Example 84, (2-Methoxy-phenyl)-(3-methyl-1H-pyrazolo[4,3-c]pyridin-4-yl)-amine] |
| 1000 to 10000 nM | CCOc1ccccc1CNc1nccc2[nH]nc(C)c12 [Example 340, (2-Ethoxy-benzyl)-(3-methyl-1H-pyrazolo[4,3-c]pyridin-4-yl)-amine] |
| 100 to 1000 nM | CCN(CC)C(=O)CCc1n[nH]c2ccnc(NC3CCCCC3)c12 [Example 181, 3-(4-Cyclohexylamino-1H-pyrazolo[4,3-c]pyridin-3-yl)-N,N-diethyl-propionamide] |
| 100 to 1000 nM | Cc1n[nH]c2ccnc(NCCc3ccc(Cl)cc3)c12 [Example 329, [2-(4-Chloro-phenyl)-ethyl]-(3-methyl-1H-pyrazolo[4,3-c]pyridin-4-yl)-amine] |
| 100 to 1000 nM | Cc1n[nH]c2ccnc(Nc3ccc(C(=O)N(C)C)cc3)c12 [Example 74, N,N-Dimethyl-4-(3-methyl-1H-pyrazolo[4,3-c]pyridin-4-ylamino)-benzamide] |
| 1000 to 10000 nM | Cc1n[nH]c2ccnc(-c3ccccc3)c12 [Example 56, 3-Methyl-4-phenyl-1H-pyrazolo[4,3-c] pyridine] |
| 1000 to 10000 nM | Cc1n[nH]c2ccnc(NCCCN3CCCC3=O)c12 [Example 324, 1-[3-(3-Methyl-1H-pyrazolo[4,3-c]pyridin-4-ylamino)-propyl]-pyrrolidin-2-one] |
| 100 to 1000 nM | Cc1n[nH]c2ccnc(Nc3cccc(CO)c3)c12 [Example 321, [3-(3-Methyl-1H-pyrazolo[4,3-c]pyridin-4-ylamino)-phenyl]-methanol] |
| 1000 to 10000 nM | COCCNC(=O)c1ccc(Nc2nccc3[nH]nc(C)c23)cc1 [Example 108, N-(2-Methoxy-ethyl)-4-(3-methyl-1H-pyrazolo [4,3-c]pyridin-4-ylamino)-benzamide] |
| 1000 to 10000 nM | Cc1n[nH]c2ccnc(Nc3cccc(OC(C)C)c3)c12 [Example 341, (3-Isopropoxy-phenyl)-(3-methyl-1H-pyrazolo[4,3-c]pyridin-4-yl)-amine] |
| < 100 nM | Cc1n[nH]c2ccnc(O[C@@H]3C[C@@H]4CC[C@H]3C4)c12 (racemic) [Example 296] |
| 100 to 1000 nM | c1cncc(-c2n[nH]c3ccnc(NC4CCCCC4)c23)c1 [Example 135, Cyclohexyl-(3-pyridin-3-yl-1H-pyrazolo[4,3-c]pyridin-4-yl)-amine] |
| 100 to 1000 nM | Cc1n[nH]c2ccnc(Nc3cccc(Cl)c3)c12 [Example 59, (3-Chloro-phenyl)-(3-methyl-1H-pyrazolo[4,3-c]pyridin-4-yl)-amine] |
| 100 to 1000 nM | Cc1n[nH]c2ccnc(Nc3ccc4nc[nH]c4c3)c12 [Example 81, (3H-Benzimidazol-5-yl)-(3-methyl-1H-pyrazolo[4,3-c]pyridin-4-yl)-amine] |
| 1000 to 10000 nM | COc1ccccc1NC(=O)c1ccc(Nc2nccc3[nH]nc(C)c23)cc1 [Example 111, N-(2-Methoxy-phenyl)-4-(3-methyl-1H-pyrazolo[4,3-c]pyridin-4-ylamino)-benzamide] |
| < 100 nM | O=C(Nc1ccc(CCc2n[nH]c3ccnc(NC4CCCCC4)c23)cc1)c1ccccn1 [Example 265, Pyridine-2-carboxylic acid {4-[2-(4-cyclohexylamino-1H-pyrazolo[4,3-c]pyridin-3-yl)-ethyl]-phenyl}-amide] |

| IC50 | SMILES |
| --- | --- |
| < 100 nM | Cc1n[nH]c2ccnc(OC3CCCCCC3)c12 [Example 283, 4-Cycloheptyloxy-3-methyl-1H-pyrazolo[4,3-c] pyridine] |
| 100 to 1000 nM | Cc1ccccc1Nc1nccc2[nH]nc(C)c12 [Example 320, (2-Methyl-phenyl)-(3-methyl-1H-pyrazolo[4,3-c]pyridin-4-yl)-amine] |
| 100 to 1000 nM | Cc1n[nH]c2ccnc(Nc3ccc(C(=O)N4CCC(F)(F)CC4)cc3)c12 [Example 110, (4,4-Difluoro-piperidin-1-yl)-[4-(3-methyl-1H-pyrazolo[4,3-c]pyridin-4-ylamino)-phenyl]-methanone] |
| 1000 to 10000 nM | Cc1n[nH]c2ccnc(-c3ccoc3)c12 [Example 58, 4-Furan-3-yl-3-methyl-1H-pyrazolo[4,3-c]pyridine] |
| 1000 to 10000 nM | c1cc2[nH]nc(CCC3CCNCC3)c2c(NC2CCCCC2)n1 [Example 217, Cyclohexyl-[3-(2-piperidin-4-yl-ethyl)-1H-pyrazolo[4,3-c]pyridin-4-yl]-amine] |
| 1000 to 10000 nM | CN(CCc1ccccc1)C(=O)CCc1n[nH]c2ccnc(NC3CCCCC3)c12 [Example 189, 3-(4-Cyclohexylamino-1H-pyrazolo[4,3-c]pyridin-3-yl)-N-methyl-N-phenethyl-propionamide] |
| 100 to 1000 nM | Cc1n[nH]c2ccnc(O[C@@H]3CCOC3)c12 [Example 297, 3-Methyl-4-[(R)-(tetrahydro-furan-3-yl)oxy]-1H-pyrazolo[4,3-c]pyridine] |
| 1000 to 10000 nM | Cc1n[nH]c2ccnc(-c3ccc(C#N)cc3)c12 [Example 54, 4-(3-Methyl-1H-pyrazolo[4,3-c]pyridin-4-yl)-benzonitrile] |
| 100 to 1000 nM | Cc1n[nH]c2ccnc(Nc3ccc(N4CCOCC4)cc3)c12 [Example 85, (3-Methyl-1H-pyrazolo[4,3-c]pyridin-4-yl)-(4-morpholin-4-yl-phenyl)-amine] |
| 100 to 1000 nM | Cc1n[nH]c2ccnc(NCCc3cccc(Cl)c3)c12 [Example 331, [2-(3-Chloro-phenyl)-ethyl]-(3-methyl-1H-pyrazolo[4,3-c]pyridin-4-yl)-amine] |
| 100 to 1000 nM | c1cc2[nH]nc(N3CCCC3)c2c(OC2CCCCC2)n1 [Example 237, 4-Cyclohexyloxy-3-pyrrolidin-1-yl-1H-pyrazolo[4,3-c]pyridine] |
| < 100 nM | O=C(Nc1ccc(CCc2n[nH]c3ccnc(NC4CCCCC4)c23)cc1)c1cccc(F)c1 [Example 275, N-{4-[2-(4-Cyclohexylamino-1H-pyrazolo[4,3-c]pyridin-3-yl)-ethyl]-phenyl}-3-fluoro-benzamide] |
| 100 to 1000 nM | CCOc1nccc2[nH]nc(C)c12 [Example 124, 4-Ethoxy-3-methyl-1H-pyrazolo[4,3-c]pyridine] |
| < 100 nM | Cc1n[nH]c2ccnc(O[C@H](C)C(C)C)c12 [Example 288, 4-((R)-1,2-Dimethyl-propoxy)-3-methyl-1H-pyrazolo [4,3-c]pyridine] |
| < 100 nM | O=C(CCc1n[nH]c2ccnc(NC3CCCCC3)c12)N1CCCC(Cc2ccccc2)C1 (stereo not drawn) [Example 194, 1-(3-Benzyl-piperidin-1-yl)-3-(4-cyclohexylamino-1H-pyrazolo[4,3-c]pyridin-3-yl)-propan-1-one] |
| 1000 to 10000 nM | Cc1n[nH]c2ccnc(NCc3ccc(C(F)(F)F)cc3)c12 [Example 326, (3-Methyl-1H-pyrazolo[4,3-c]pyridin-4-yl)-4-(4-trifluoromethyl-benzyl)-amine] |
| 100 to 1000 nM | Cc1n[nH]c2ccnc(N[C@H]3CC[C@H](O)CC3)c12 [Example 26, Trans-4-(3-Methyl-1H-pyrazolo[4,3-c]pyridin-4-ylamino)-cyclohexanol] |
| 100 to 1000 nM | Clc1cccc(-c2n[nH]c3ccnc(NC4CCCCC4)c23)c1 [Example 144, [3-(3-Chloro-phenyl)-1H-pyrazolo[4,3-c]pyridin-4-yl]-cyclohexyl-amine] |
| 100 to 1000 nM | CC1CCN(C(=O)CCc2n[nH]c3ccnc(NC4CCCCC4)c23)CC1 [Example 192, 3-(4-Cyclohexylamino-1H-pyrazolo[4,3-c]pyridin-3-yl)-1-(4-methyl-piperidin-1-yl)-propan-1-one] |
| 100 to 1000 nM | O=C(CCc1n[nH]c2ccnc(NC3CCCCC3)c12)N1CCCC(Oc2cccnc2)C1 (stereo not drawn) [Example 195, 3-(4-Cyclohexylamino-1H-pyrazolo[4,3-c]pyridin-3-yl)-1-[3-(pyridin-3-yloxy)-piperidin-1-yl]-propan-1-one] |
| 1000 to 10000 nM | Cc1n[nH]c2ccnc(NC3CCN(C(=O)CCN4CCOCC4)CC3)c12 [Example 103, 1-[4-(3-Methyl-1H-pyrazolo[4,3-c]pyridin-4-ylamino)-piperidin-1-yl]-3-morpholin-4-yl-propan-1-one] |

| SMILES | IC50 |
| --- | --- |
| CCC[C@H](C)Oc1nccc2[nH]nc(C)c12 [Example 285, 3-Methyl-4-((S)-1-methyl-butoxy)-1H-pyrazolo[4,3-c]pyridine] | 100 to 1000 nM |
| CC[C@@H](C)Oc1nccc2[nH]nc(C)c12 [Example 122, 4-((R)-sec-Butoxy)-3-methyl-1H-pyrazolo[4,3-c] pyridine] | < 100 nM |
